US20250275954A1, “USE OF KYNURENIC ACID RESISTING HYPERURICEMIA AND STRUCTURAL ANALOG THEREOF IN PREPARATION OF XOD INHIBITOR” (JIMEI UNIVERSITY, priority 2023, published 2025)
Entries after “also recorded” stand apart in the source; their conditions may differ.

What was measured:
XOD (xanthine oxidase) = XOD (xanthine oxidase) (Homo sapiens, UniProt P47989); test: In vitro XOD enzyme activity inhibition (xanthine substrate, uric acid measured at 290 nm); assay type: biochemical; conditions: for inhibition at 1000 µM: compound concentration 1 mM (FIG. 11), read-out: xanthine oxidase inhibitory activity at 1 mM; for IC50: in vitro, inhibitor co-reacted with XOD 10 min, xanthine substrate, 290 nm, read-out: XOI IC50 (XOD inhibitory activity)
Method: The inhibitory effect of quinoline structural analogs on XOD was evaluated by co-reacting an inhibitor with XOD for 10 min, adding a certain concentration of a reaction substrate xanthine, and measuring the amount of uric acid produced at 290 nm.

hyperuricemic mice [1] = test: Serum creatinine (CRE) in hyperuricemic mice; assay type: in vivo, Kunming mice; conditions: day 21, vs model group (p<0.01), KA 7, 35, 70 mM/kg/day
Source text: (§1) 36 SPF-grade male Kunming mice with relatively consistent posture and good health were randomly divided into a normal control group, a model group, a positive control group, a kynurenic acid low dose group (KA-L), a kynurenic acid medium dose group (KA-M) and a kynurenic acid high dose group (KA-H), with six experimental mice in each group. The normal control group received daily gavage of an equal amount of CMC-Na solution and injection of an equal amount of saline, and the remaining groups received daily gavage of 500 mg/kg hypoxanthine (HX) and intraperitoneal injection of 300 mg/kg potassium oxazinate (PO). […] Oral gavage was continued for 21 days. Data were analyzed for correlation and significance by using SPSS 23.0 software, and differences between the groups were compared by using one-way ANOVA, *p<0.05 indicates a significant difference, **p<0.01 indicates a very significant difference, and the data were expressed as X±SD. […]
Serum samples of Example 2 were taken and the CRE content of the mouse serum samples was measured by using a creatinine (CRE) assay kit (sarcosine oxidation), and experimental operations and data calculation were performed in strict accordance with the kit instructions.

[2] = Body weight of hyperuricemic mice; assay type: in vivo, Kunming mice; conditions: hyperuricemic mice (HX + PO), daily gavage KA 7, 35 or 70 mM/kg, 21 days
Method: SPF-grade male Kunming mice (8 weeks old), 35±5 g, were purchased from Changzhou Cavens Laboratory Animal Co., Ltd. Animal quality was tested by Suzhou Xishan Biotechnology Co., Ltd.
Experimental mice were housed in a clean animal feeding room, and feeding and experimental operations were performed according to the standards of the Animal Experimental Center, and the animal feeding room and an operating workbench were cleaned and disinfected daily. All experimental mice were housed in a comfortable environment (temperature: 25±2° C., humidity: 40%-70%, 12 hours of day and night cycle) with good ventilation and daily supplementation of feed and drinking water.
36 SPF-grade male Kunming mice with relatively consistent posture and good health were randomly divided into a normal control group, a model group, a positive control group, a kynurenic acid low dose group (KA-L), a kynurenic acid medium dose group (KA-M) and a kynurenic acid high dose group (KA-H), with six experimental mice in each group. […] Data were analyzed for correlation and significance by using SPSS 23.0 software, and differences between the groups were compared by using one-way ANOVA, *p<0.05 indicates a significant difference, **p<0.01 indicates a very significant difference, and the data were expressed as X±SD. […]

hyperuricemic mice [3] = test: Blood urea nitrogen (BUN) in hyperuricemic mice; assay type: in vivo, Kunming mice
Source text: as §1
Serum samples of Example 2 were taken and the blood urea nitrogen (BUN) content in the mouse serum samples was measured by using a blood urea nitrogen (BUN) assay kit (a urease method), and experimental operations and data calculation were performed in strict accordance with the kit instructions.

XOD [4] = target: T1, XOD (Mus musculus, UniProt Q00519); test: Hepatic XOD enzyme activity in hyperuricemic mice; assay type: in vivo, Kunming mice; conditions: liver homogenate, day 21, vs model group (p<0.01); KA 7, 35, 70 mM/kg/day
T1 construct: from tissue; host or cells: liver homogenate of male Kunming mice (hyperuricemia model)
Source text: (§2) 36 SPF-grade male Kunming mice with relatively consistent posture and good health were randomly divided into a normal control group, a model group, a positive control group, a kynurenic acid low dose group (KA-L), a kynurenic acid medium dose group (KA-M) and a kynurenic acid high dose group (KA-H), with six experimental mice in each group. The normal control group received daily gavage of an equal amount of CMC-Na solution and injection of an equal amount of saline, and the remaining groups received daily gavage of 500 mg/kg hypoxanthine (HX) and intraperitoneal injection of 300 mg/kg potassium oxazinate (PO). […] Oral gavage was continued for 21 days. Data were analyzed for correlation and significance by using SPSS 23.0 software, and differences between the groups were compared by using one-way ANOVA, *p<0.05 indicates a significant difference, **p<0.01 indicates a very significant difference, and the data were expressed as X±SD.
Serum samples of Example 2 were taken, and the XOD enzyme activity levels in the mouse serum samples were determined by using a xanthine oxidase (XOD) assay kit (a colorimetric method), and experimental operations and data calculation were performed in strict accordance with the kit instructions. […]

hyperuricemic mice [5] = test: Hepatic uric acid in hyperuricemic mice; assay type: in vivo, Kunming mice; conditions: liver homogenate, day 21 (p<0.01); KA 7, 35, 70 mM/kg/day; allopurinol 35 mM/kg/day
Source text: as §2
Serum uric acid levels in target mice were detected by using a uric acid (UA) test kit. […]
On day 21, the mice in each group of Example 1 were quickly sacrificed by cervical dislocation after being fasted for solids and liquids for 12 h and livers were collected for weighing and subpackaging. […] Uric acid levels in the mouse liver homogenate samples were determined by using the method described in Example 2. […]

hyperuricemic mice [6] = test: Serum uric acid in hyperuricemic mice (UA test kit); assay type: in vivo, Kunming mice; conditions: for serum uric acid level: hyperuricemic mice, day 21, vs model group (p<0.01), KA 7, 35, 70 mM/kg/day, allopurinol 35 mM/kg/day, gavage
Method: (§3) The normal control group received daily gavage of an equal amount of CMC-Na solution and injection of an equal amount of saline, and the remaining groups received daily gavage of 500 mg/kg hypoxanthine (HX) and intraperitoneal injection of 300 mg/kg potassium oxazinate (PO). […] Oral gavage was continued for 21 days. Data were analyzed for correlation and significance by using SPSS 23.0 software, and differences between the groups were compared by using one-way ANOVA, *p<0.05 indicates a significant difference, **p<0.01 indicates a very significant difference, and the data were expressed as X±SD.
At the end of the experiment on day 21, the mice in each group of Example 1 were subjected to blood collection from eyeballs of living bodies after being fasted for solids and liquids for 12 h. After sufficient blood samples were collected, they were allowed to stand at room temperature for 30 min and then centrifuged (3500 rpm, 10 min). A supernatant was taken and stored at −20° C. for standby application.
Serum uric acid levels in target mice were detected by using a uric acid (UA) test kit. The serum uric acid level is an important evaluation index of drug improvement in hyperuricemia.

[7] = system: adenosine deaminase (ADA); test: Serum adenosine deaminase activity (ADA) in hyperuricemic mice (peroxidase method kit); assay type: in vivo, Kunming mice
Source text: as §2
At the end of the experiment on day 21, the mice in each group of Example 1 were subjected to blood collection from eyeballs of living bodies after being fasted for solids and liquids for 12 h. […]
Serum samples of Example 2 were taken, and ADA enzyme activity levels in the mouse serum samples were determined by using an adenosine deaminase activity (ADA) assay kit (a peroxidase method).

XOD [8] = target: T1, XOD; test: Serum XOD enzyme activity in hyperuricemic mice (colorimetric kit); assay type: in vivo, Kunming mice; conditions: day 21, vs model group (p<0.01), KA 7, 35, 70 mM/kg/day, allopurinol 35 mM/kg/day
Method: as §3
After sufficient blood samples were collected, they were allowed to stand at room temperature for 30 min and then centrifuged (3500 rpm, 10 min). A supernatant was taken and stored at −20° C. for standby application.

[9] = hyperuricemic mice, day 21, vs model group (p<0.01), KA 7, 35, 70 mM/kg/day

Chain of XOD (xanthine oxidase) (P47989 whole entry, species assumed): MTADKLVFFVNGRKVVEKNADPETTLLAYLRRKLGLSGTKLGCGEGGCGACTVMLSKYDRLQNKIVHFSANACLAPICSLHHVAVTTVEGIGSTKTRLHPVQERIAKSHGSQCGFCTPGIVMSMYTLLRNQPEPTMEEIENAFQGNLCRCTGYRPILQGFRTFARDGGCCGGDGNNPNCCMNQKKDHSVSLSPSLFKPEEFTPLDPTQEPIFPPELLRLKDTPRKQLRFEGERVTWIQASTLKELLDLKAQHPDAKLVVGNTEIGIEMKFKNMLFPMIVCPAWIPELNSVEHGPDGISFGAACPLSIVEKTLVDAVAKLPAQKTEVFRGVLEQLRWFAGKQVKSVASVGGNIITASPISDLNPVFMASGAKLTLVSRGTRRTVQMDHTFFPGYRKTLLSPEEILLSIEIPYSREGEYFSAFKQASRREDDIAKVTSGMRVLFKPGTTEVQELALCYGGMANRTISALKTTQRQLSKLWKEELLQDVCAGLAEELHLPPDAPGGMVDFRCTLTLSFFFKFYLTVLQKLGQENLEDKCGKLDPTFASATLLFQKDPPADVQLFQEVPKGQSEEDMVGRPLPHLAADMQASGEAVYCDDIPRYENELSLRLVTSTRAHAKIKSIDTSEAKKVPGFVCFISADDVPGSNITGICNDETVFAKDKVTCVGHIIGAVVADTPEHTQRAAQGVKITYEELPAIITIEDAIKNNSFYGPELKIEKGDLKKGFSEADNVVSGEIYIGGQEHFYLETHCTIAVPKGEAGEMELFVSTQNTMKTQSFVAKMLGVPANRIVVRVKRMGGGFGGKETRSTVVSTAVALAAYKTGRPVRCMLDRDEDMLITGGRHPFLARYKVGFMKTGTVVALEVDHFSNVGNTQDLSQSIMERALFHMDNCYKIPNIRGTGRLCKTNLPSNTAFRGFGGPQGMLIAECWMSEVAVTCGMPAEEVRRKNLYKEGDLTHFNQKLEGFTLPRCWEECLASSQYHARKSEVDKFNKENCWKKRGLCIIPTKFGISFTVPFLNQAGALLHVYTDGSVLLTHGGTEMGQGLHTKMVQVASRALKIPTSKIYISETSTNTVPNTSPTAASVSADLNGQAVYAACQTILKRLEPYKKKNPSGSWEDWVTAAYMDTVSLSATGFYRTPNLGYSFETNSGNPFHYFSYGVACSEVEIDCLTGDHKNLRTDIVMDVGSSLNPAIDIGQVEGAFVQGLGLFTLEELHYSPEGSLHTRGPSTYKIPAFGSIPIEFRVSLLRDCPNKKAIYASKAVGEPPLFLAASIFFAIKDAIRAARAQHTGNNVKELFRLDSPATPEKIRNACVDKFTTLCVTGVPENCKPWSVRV
T1 sequence (Q00519 whole entry): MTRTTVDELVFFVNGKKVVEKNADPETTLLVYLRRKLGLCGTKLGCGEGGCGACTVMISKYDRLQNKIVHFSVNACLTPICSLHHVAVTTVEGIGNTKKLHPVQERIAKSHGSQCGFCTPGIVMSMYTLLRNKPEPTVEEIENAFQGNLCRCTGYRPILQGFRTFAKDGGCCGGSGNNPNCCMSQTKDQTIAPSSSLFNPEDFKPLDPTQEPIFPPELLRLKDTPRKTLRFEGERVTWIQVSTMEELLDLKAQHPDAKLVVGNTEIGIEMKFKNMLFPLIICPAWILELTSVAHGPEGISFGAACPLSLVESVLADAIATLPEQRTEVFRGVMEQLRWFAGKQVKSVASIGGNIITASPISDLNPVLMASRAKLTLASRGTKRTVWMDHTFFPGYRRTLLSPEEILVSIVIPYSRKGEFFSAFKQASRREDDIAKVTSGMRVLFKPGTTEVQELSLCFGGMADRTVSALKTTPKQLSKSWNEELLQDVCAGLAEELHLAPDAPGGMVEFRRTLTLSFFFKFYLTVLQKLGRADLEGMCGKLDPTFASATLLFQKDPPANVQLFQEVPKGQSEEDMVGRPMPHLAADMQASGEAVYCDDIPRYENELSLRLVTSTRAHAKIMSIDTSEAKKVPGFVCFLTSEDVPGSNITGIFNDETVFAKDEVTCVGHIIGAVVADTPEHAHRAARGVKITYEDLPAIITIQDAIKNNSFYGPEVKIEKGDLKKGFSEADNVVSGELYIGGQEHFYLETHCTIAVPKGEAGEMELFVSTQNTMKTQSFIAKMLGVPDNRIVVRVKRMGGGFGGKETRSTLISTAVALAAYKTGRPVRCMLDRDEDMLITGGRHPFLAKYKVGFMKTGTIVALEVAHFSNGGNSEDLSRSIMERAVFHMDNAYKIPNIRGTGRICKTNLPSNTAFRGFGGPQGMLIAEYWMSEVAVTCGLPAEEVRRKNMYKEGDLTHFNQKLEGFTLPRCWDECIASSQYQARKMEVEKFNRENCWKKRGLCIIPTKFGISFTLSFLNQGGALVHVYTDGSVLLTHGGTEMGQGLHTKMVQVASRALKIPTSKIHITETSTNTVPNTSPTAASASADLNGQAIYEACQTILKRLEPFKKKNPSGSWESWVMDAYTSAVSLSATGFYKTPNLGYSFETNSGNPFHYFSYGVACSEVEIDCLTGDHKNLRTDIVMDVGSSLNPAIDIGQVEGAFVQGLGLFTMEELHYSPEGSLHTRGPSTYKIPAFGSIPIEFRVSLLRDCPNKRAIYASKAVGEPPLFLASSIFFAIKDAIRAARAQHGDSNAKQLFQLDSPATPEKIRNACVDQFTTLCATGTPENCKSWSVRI

## O=C(O)c1cnc2ccc(O)cc2c1 [Compound 5, 6-Hydroxyquinoline-3-carboxylic acid]
XOD (xanthine oxidase)
  inhibition at 1000 µM: > 50%
  IC50: 500 ± 130 µM

## CCOC(=O)c1cc(O)c2ccccc2n1 [Compound 7, Ethyl 4-hydroxyquinoline-2-carboxylate]
XOD (xanthine oxidase)
  IC50: 5650 ± 100 µM

## O=C(O)c1cc(O)nc2ccccc12 [Compound 11, 2-Hydroxyquinoline-4-carboxylic acid]
XOD (xanthine oxidase)
  IC50: 1610 ± 70 µM

## O=C(O)c1nc2ccccc2cc1O [Compound 13, 3-Hydroxyquinoline-2-carboxylic acid]
XOD (xanthine oxidase)
  inhibition at 1000 µM: > 50%
  IC50: 970 ± 50 µM

## O=C(O)c1cc(O)c2ccccc2n1 [KA, Kynurenic acid]
Hyperuricemic mice [1]
  serum creatinine (CRE) level: significantly reduces; also recorded: significantly decrease
[2]
  growth status and body weight: no significant effect; also recorded: no significant impact; also recorded: did not affect
Hyperuricemic mice [3]; KA-M and KA-H (35 and 70 mM/kg/day) vs allopurinol 35 mM/kg/day (p<0.01)
  BUN level compared with the positive control group: reduce BUN levels in the mice more significantly
Hyperuricemic mice [3]; [9]
  blood urea nitrogen (BUN) level: significantly reduces; also recorded: significantly decrease
XOD (xanthine oxidase)
  IC50: 1990 ± 260 µM
XOD [4]
  hepatic XOD enzyme activity: effectively inhibit; also recorded: decreased significantly
Hyperuricemic mice [5]
  hepatic uric acid level: reduce hepatic UA levels in a concentration-dependent manner; also recorded: reduce hepatic uric acid levels in a concentration-dependent manner; also recorded: gradient decline
Hyperuricemic mice [6]; KA-H, 70 mM/kg/day, day 21
  serum uric acid level, comparison among KA doses: most pronounced
Hyperuricemic mice [6]
  serum uric acid level: significantly reduce
[7]; KA-H, 70 mM/kg/day, day 21
  serum ADA enzyme activity, comparison among KA doses: the most significant
[7]; [9]
  serum ADA enzyme activity: effectively reduce; also recorded: significantly reduced
XOD [8]
  serum XOD enzyme activity: reduce serum XOD enzyme activity in hyperuricemic mice to varying degrees

## Oc1ncnc2[nH]ncc12 [allopurinol, reference compound]
XOD (xanthine oxidase); FIG. 10A to 10R
  xanthine oxidase inhibitory activity at various concentrations: concentration-dependent
Hyperuricemic mice [5]
  hepatic uric acid level: significantly reduced
Hyperuricemic mice [6]
  serum uric acid level: significantly inhibited the increase
